Measured values: article PMC6290777, “Inhalation of the prodrug PI3K inhibitor CL27c improves lung function in asthma and fibrosis” (Nature Communications, 2018)

Experiments:
[1] = system: OVA-induced acute allergic asthma; assay: OVA-induced acute allergic asthma model; assay type: in vivo, BALB/c mice
Description: On Days 1 and 14, BALB/c mice (6–8 weeks) received an intraperitoneal injection (i.p.) of a solution containing 0.5 mg/ml OVA and 5 mg/ml Alum (described in Fig. 2). Untreated controls were injected with a solution of 5 mg/ml Alum. […] Untreated control groups included mice challenged with PBS alone. On day 29, mice were sacrificed, and samples were collected for further analysis.
BALF was performed to obtain leukocytes from alveolar space. The trachea was exposed and a 1.7-mm-outside-diameter polyethylene catheter was inserted. BAL was performed by washing the lungs three-times with three different 500 µl aliquots of PBS. BALF samples were centrifuged at 600 × g for 10 min at 4 °C on a histology glass slide and stained with Diff Quick (MICROPTIC, #DQ-ST). The number of leukocytes and differential counts of different population were obtained evaluating the percentage leukocyte populations over the total cell number.
IL-5, IL-13, eotaxin, TGF-β, KC, IL-17A, and MCP-1 levels in the BALF and anti-OVA IgE levels in serum were measured by ELISA technique using commercial DuoSet kits R&D Systems according to the instructions of the manufacturer. Results were expressed in levels of cytokines per ml of […] (pg/ml) or arbitrary units (A.U.).
Immunohistochemistry for CD18 was performed using the streptavidin-biotin-peroxidase method in formalin-fixed, paraffin-embedded tissue sections (5 µm thick) mounted on poly-L-lysine-coated microscope slides. Lung cross-sections were deparaffinized and rehydrated through xylene and graded alcohols. After antigen retrieval, endogenous peroxidase was blocked (15 min) with 3% (v/v) hydrogen peroxide and washed in phosphate-buffered saline (PBS). Sections were incubated overnight (4 °C) with primary rabbit anti-CD18 antibody (Acris Antibodies GmbH, Germany, Cat. Number B0842-1) diluted 1:400 in PBS plus bovine serum albumin (PBS-BSA) or rabbit anti/PAkt (S473) diluted 1:100 in PBS/BSA. The slides were then incubated with biotinylated goat anti-rabbit antibody (Dako Agilent Pathology Solution, USA) diluted 1:1000 in PBS/BSA. After washing, the slides were incubated with avidin-biotin-horseradish peroxidase conjugate (Dako Agilent Pathology Solution, USA) for 30 min, according to the manufacturer’s instructions. CD18 and PAkt-positive cells were visualized with the chromogen 3,3′-diaminobenzidine (DAKO liquid DAB + substrate chromogen system, CA, USA). Slides were counterstained with Harry’s hematoxylin, dehydrated in a graded alcohol series, cleared in xylene, and cover slipped.
Lung, liver, and heart samples were collected for western blot detection of akt phosphorilation levels. Protein samples were resolved by 10% SDS-PAGE and transferred on to PVDF (Immobilon™-P) membranes. The membranes were blocked with 5% BSA in 1x TBS with 0.3% Tween 20 for 30 min at […]. Then, the membranes were incubated overnight at 4 °C with primary antibodies (phosphorylated Akt serine 473, 1:1000, Cell Signaling Technology, Cat. Number 4060) and 1 h with HRP-conjugated secondary antibody (1:10000). The blots were visualized in ECL solution for 1 min and images were captured on Luminescent Image Analyser (ChemiDoc Imaging Systems, Bio-Rad Laboratories, USA). For loading control, the blots were striped and reassessed with pan Akt (1:1000) antibody. For quantification, specific phosphorylation was calculated as the ratio of signals for phosphorylated Akt to the signal of total Akt detected. Values of unstimulated samples were set to 1.0. Uncropped scans of the most important blots are provided as a supplementary figure in the Supplementary Information (Supplementary Fig. 15).

[2] = system: bleomycin-induced lung fibrosis; assay: Bleomycin-induced lung injury and fibrosis in mice; assay type: in vivo, C57BL/6J mice
Description: Eight-to-ten-week-old C57BL/6J males were used in bleomycin-induced lung injury and fibrosis model[10],[51]. Briefly, a single 40 µl injection containing 3.75 or 2 mg/kg of bleomycin sulfate (Sigma Aldrich-MERCK #B1141000) diluted in PBS or PBS only (vehicle) was instilled intratracheally. […]
Levels of hydroxyproline in lung tissues were measured using the Hydroxyproline Assay kit (Sigma-Audrich, St. Louis, MO, USA) according to the manufacturer’s instructions. Briefly, 10 mg of pulverized frozen lungs homogenized in 100 µL of concentrated hydrochloric acid (HCl, 12 M), and hydrolyzed at 120 °C for 3 h. Then, 5 µL of each sample in triplicate were used to the assay. […] The absorbance was obtained at 560 nm. The final results are expressed as concentration of hydroxyproline in µg/mL.
The left lung was removed and fixed in 4% neutral phosphate-buffered formalin (pH 7.4)[10]. The tissues were dehydrated gradually in ethanol, embedded in paraffin, cut into 4 µm sections, stained with H&E, Gomori’s trichrome and periodic acid schiff (PAS), and examined under light microscopy by a pathologist in a double blinded manner. Images of lung sections were captured with a digital camera (Optronics DEI-470) connected to a microscope (Olympus IX70) with a magnification of ×40 or ×100. Inflammation was scored according to modification of existing protocols[53] and to the histopathology criteria reported in Supplementary Table 4. […]
For quantitative measurements, total RNA was extracted from lung tissues using the High Pure RNA isolation kit (Invitrogen, Life Technologies, Paisley, UK) and reverse-transcribed with the Superscript first-strand synthesis system kit (Invitrogen, Life Technologies, Paisley, UK). Specific mRNA sequences were quantified by real-time PCR with primer/probe combinations based on the Roche Universal ProbeLibrary Set, Mouse (Tgfb1 probe: #72, Ctgf probe: #71, Col1a1 probe: #15 and Mmp2 probe #49). Primer sequences are listed in Supplementary Table 5.

[3] = late treatment, day 17 to day 27
[4] = moderate model, bleomycin 2 mg/kg, aerosolized CL27c 2 mg/ml
[5] = moderate model, therapeutic aerosolized CL27c
[6] = severe model, bleomycin 3.75 mg/kg

COC(=O)c1cccc(Cn2cc(-c3cccc4c(=O)cc(N5CCOCC5)[nH]c34)nn2)c1 [CL27c]
TGF-β in lung tissue lysates ([1]; OVA-challenged mice as described in Fig. 2, inhaled CL27c): reduction of transforming growth factor-β (TGF-β) and IL-13 to the level detected in unsensitized controls
IL-10 in lung tissue lysates ([1]; OVA-challenged mice as described in Figure 2, inhaled CL27c): increased pulmonary abundance of IL-10
efficacy on OVA-induced acute asthma ([1]; highest dose, 20 mg/ml): inconsistent outcomes
IL-5 and IL-13 levels in lung tissue ([1]; inhaled CL27c 2 mg/ml): restored both IL-5 and IL-13 to the levels detected in unsensitized control mice
reduction of eosinophils accumulation in BALF ([1]; inhaled CL27c 2 mg/ml): 70%
reduction of lymphocytes accumulation in BALF ([1]; inhaled CL27c 2 mg/ml): 72%
reduction of macrophages accumulation in BALF ([1]; inhaled CL27c 2 mg/ml): 60%
reduction of neutrophils accumulation in BALF ([1]; inhaled CL27c 2 mg/ml): 68%
Akt phosphorylation in lung lysates and sections ([1]; inhaled CL27c 2 mg/ml, day 29): decrease in Akt phosphorylation
CD18-positive leukocyte recruitment to the lung ([1]; inhaled CL27c 2 mg/ml, immunohistochemistry): reduced leukocyte recruitment
efficacy on OVA-induced acute asthma ([1]; lowest dose, 0.2 mg/ml): no efficacy
Akt phosphorylation in lung protein extracts and sections ([2]; bleomycin model): blunted the increase of Akt phosphorylation
lung function [2, 3]: improved lung function
mortality [2, 3]: significantly blunts mortality
fibrotic collagen deposition ([2]; late treatment, day 17 to day 27 after bleomycin 2 mg/kg): still effective in reducing fibrotic collagen deposition
lung elasticity (pulmonary compliance) restored, relative to controls ([2]; moderate model): 75 % of controls
lung resistance ([2]; moderate model): reduce the gain in lung resistance almost to the level of healthy mice
survival ([2]; moderate model, 22 days after instillation, bleomycin alone 50% mortality): 100%
fibrotic remodeling (Ashcroft score, collagen content) ([2]; moderate model, bleomycin 2 mg/kg): significantly reduce fibrotic remodeling
abundance of active TGF-β1 [2, 4]: significantly decreased the abundance of active TGF-β1
mRNA levels of Tgfb1, Ctgf, Col1a1, Mmp2 [2, 4]: attenuated mRNA levels of Tgfb1
neutrophil-derived MPO levels in the lungs [2, 4]: markedly reduced
airway inflammation (BALF cells) ([2]; moderate model, bleomycin 2 mg/kg, aerosolized CL27c 2 mg/ml day 10 to 21): markedly reduced airway inflammation
histopathological inflammation score ([2]; moderate model, day 22): significantly attenuated in airways, vasculature, and parenchyma
TLC, inspiratory capacity, forced vital capacity, and FEV [2, 5]: significant recovery back to normal levels
pressure–volume curve [2, 5]: significantly improved the pressure–volume curve
hydroxyproline deposition in lungs [2, 6]: significantly decreased hydroxyproline deposition in lungs
infiltration of macrophages and neutrophils [2, 6]: reduced infiltration of either macrophages or neutrophils
mortality within 21 days ([2]; severe model, bleomycin 3.75 mg/kg, CL27c could not protect): 100%
